# Test results: article PMC5773580, “A synthetic combinatorial approach to disabling deviant Hedgehog signaling” (Scientific Reports, 2018)
# Where “and” joins values, the source holds several entries; their conditions need not be identical. Identical values can stand only once.
# Legend:
# HDAC4 = biological target: T1, HDAC4 (Homo sapiens, UniProt P56524); assay: In vitro HDAC profiling (deacetylation assay), HDAC4; assay type: biochemical; conditions: for HDAC Activity (Fluorescent counts): Repeat1/Repeat 2
# T1 construct: purchased BPS Bioscience #50051-11
# Description: (§1) HDAC profiling was performed at BPS Bioscience (San Diego, CA). All of the compounds are dissolved in DMSO. A series of dilutions of the compounds were prepared with 10% DMSO in HDAC assay buffer (#50031) and 5 µl of the dilution was added to a 50 µl reaction so that the final concentration of DMSO is 1% in all of reactions. All of the enzymatic reactions were conducted in duplicate at 37 °C for 30 mins, except that the enzyme reactions for HDAC11 were at room temperature for 3 hrs. All of the reactions were performed in a 50 µl mixture containing HDAC assay buffer, 5 µg BSA, an HDAC substrate [HDAC Substrate 3 (BPS number 50037) or HDAC Class 2a Substrate 1 (BPS number 50040)], an HDAC enzyme (#50051-11) and a test compound. After enzymatic reactions, 50 μl of HDAC Developer (#50030) was added to each well and the plate was incubated at room temperature for an additional 20 mins. Fluorescence intensity was measured at an excitation of 360 nm and an emission of 460 nm using a Tecan Infinite M1000 microplate reader. HDAC activity assays were performed in duplicates at each concentration. The fluorescent intensity data were analyzed using the computer software, Graphpad Prism. In the absence of the compound, the fluorescent intensity (Ft) in each data set was defined as 100% activity. In the absence of HDAC, the fluorescent intensity (Fb) in each data set was defined as 0% activity. The percent activity in the presence of each compound was calculated according to the following equation: %activity = (F − Fb)/(Ft − Fb), where F = the fluorescent intensity in the presence of the compound. The values of % activity versus a series of compound concentrations were then plotted using non-linear regression analysis of Sigmoidal dose-response curve generated with the equation Y = B + (T − B)/1 + 10((LogIC50 − X) × Hill Slope), where Y = percent activity, B = minimum percent activity, T = maximum percent activity, X = logarithm of compound and Hill Slope = slope factor or Hill coefficient. The IC50 value was determined by the concentration causing a half-maximal percent activity.
# HDAC7 = biological target: T2, HDAC7 (Homo sapiens, UniProt Q8WUI4); assay: In vitro HDAC profiling (deacetylation assay), HDAC7; assay type: biochemical; conditions: for HDAC Activity (Fluorescent counts): Repeat1/Repeat 2
# T2 construct: purchased BPS Bioscience #50051-11
# T2 sequence (Q8WUI4 1-952): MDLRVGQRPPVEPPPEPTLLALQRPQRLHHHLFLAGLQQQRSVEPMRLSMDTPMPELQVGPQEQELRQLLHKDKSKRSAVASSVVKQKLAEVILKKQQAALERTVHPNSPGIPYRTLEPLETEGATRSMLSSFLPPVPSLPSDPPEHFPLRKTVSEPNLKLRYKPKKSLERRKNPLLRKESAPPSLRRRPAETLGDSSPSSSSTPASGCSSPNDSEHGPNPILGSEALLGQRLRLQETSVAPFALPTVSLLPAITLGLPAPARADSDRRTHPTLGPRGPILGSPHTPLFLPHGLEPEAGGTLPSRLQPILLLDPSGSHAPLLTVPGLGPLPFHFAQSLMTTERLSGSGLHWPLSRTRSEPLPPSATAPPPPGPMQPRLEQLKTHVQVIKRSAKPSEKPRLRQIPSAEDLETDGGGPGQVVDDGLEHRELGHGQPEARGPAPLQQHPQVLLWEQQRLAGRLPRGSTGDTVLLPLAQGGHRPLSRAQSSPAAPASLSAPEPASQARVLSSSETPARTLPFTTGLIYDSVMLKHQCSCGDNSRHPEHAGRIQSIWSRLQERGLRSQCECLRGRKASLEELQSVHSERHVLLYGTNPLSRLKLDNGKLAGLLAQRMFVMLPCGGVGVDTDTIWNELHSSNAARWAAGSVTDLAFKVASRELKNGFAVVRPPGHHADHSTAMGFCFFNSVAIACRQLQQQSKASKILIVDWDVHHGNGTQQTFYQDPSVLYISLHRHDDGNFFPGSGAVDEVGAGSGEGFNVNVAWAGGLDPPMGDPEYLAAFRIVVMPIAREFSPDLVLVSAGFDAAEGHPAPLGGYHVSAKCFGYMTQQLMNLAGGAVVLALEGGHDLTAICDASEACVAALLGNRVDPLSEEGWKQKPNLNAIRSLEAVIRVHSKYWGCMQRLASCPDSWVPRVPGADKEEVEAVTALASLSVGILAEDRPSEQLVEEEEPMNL
# Description: as §1
# [1] = test system: SMO-L412F in NIH3T3 (GLI-BS reporter); assay: GLI-BS reporter assay, NIH3T3 cells with SMO-L412F DNA; assay type: cell-based; conditions: Mus musculus
# Description: The HH-responsive firefly luciferase reporter (GLI-BS) and a control Renilla luciferase reporter (SV40-RL) were transfected into indicated cell lines using Effectene (Qiagen) either alone or with indicated DNAs. 24 hrs after transfection, cells were switched to low serum media (3% calf serum), and grown for another 48 hrs. in 5% CO2 in the presence/absence of compounds. 3T3-ShhFL cell line that stably expressing SHH and the two reporters were cultured in a similar fashion. FL and RL activities in lysate generated using Passive Lysis Buffer (Promega) were then assessed using the Dual-Luciferase kit (Promega) and a 96-well plate reading luminometer (BMG). The ratio of FL/RL was calculated and the averaged ratios from three replicates were reported.
# [2] = test system: GLI1 binding to DNA in RMS13 cells; assay: GLI DNA binding assay (biotinylated oligo pulldown); assay type: cell-based; conditions: lysate of RMS13 cells treated 48 hrs
# Description: A detailed protocol for DNA binding assay was previously described. Briefly, cells treated for 48 hrs with compounds were lysed in 1% NP40/phosphate buffered saline/protease inhibitors and cleared using a microcentrifuge. The lysate was then incubated with 0.5 µM of double-strand biotinylated oligonucleotides and 40 µl streptavidin-agarose bead suspension (Thermo Scientific, 20349) for 2 hrs. The streptavidin agarose beads are washed (3X) with 1% NP40/phosphate buffered saline/protease inhibitors and eluted with 2X Laemmli sample buffer. The supernatants are separated on SDS-PAGE and analyzed using western blotting. Antibodies were purchased from the following vendors: GLI1 (Cell Signaling Technology, #2534) and actin (SIGMA, #A5441).
# [3] = in vitro deacetylation assay, duplicates
# T1 sequence (P56524 whole entry): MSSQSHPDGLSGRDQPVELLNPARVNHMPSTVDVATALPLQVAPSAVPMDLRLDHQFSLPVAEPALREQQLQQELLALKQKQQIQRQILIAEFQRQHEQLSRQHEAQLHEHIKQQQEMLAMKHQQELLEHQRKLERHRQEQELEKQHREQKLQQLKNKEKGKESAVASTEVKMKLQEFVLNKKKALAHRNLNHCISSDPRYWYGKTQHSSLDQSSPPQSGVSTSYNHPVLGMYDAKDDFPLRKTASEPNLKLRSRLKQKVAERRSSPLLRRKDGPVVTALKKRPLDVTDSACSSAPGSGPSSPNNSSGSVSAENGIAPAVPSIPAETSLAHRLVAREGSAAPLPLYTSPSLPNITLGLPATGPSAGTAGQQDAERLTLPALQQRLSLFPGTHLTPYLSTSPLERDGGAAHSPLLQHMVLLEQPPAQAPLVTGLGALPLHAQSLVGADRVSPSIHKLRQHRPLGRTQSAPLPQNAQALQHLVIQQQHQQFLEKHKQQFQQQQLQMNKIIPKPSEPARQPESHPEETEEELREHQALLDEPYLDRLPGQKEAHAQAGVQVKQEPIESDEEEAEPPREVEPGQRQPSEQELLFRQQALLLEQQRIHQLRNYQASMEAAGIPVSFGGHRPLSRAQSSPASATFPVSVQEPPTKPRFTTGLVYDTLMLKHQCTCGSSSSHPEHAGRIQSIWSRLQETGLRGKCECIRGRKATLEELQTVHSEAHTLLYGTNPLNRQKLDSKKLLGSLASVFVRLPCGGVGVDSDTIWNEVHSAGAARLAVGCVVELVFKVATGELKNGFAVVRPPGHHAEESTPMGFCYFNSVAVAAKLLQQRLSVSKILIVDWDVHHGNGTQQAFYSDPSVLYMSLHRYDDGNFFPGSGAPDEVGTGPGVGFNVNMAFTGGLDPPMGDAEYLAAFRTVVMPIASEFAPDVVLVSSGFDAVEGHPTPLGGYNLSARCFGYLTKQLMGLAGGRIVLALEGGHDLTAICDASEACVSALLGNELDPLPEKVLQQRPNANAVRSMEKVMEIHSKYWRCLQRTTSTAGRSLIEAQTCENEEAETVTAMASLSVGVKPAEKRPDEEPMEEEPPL
smiles,measurement,setting,value
O=C(CCCCCCC(=O)Nc1ccc(Cl)c(C(=O)Nc2ccc(NC(=O)c3cc(Cl)ccc3Cl)cc2)c1)NO [IHR-SAHA],HDAC Activity (Fluorescent counts),"HDAC4; HDAC4, WW01 0 Log nM",34281 Fluorescent counts and 35156 Fluorescent counts
same,HDAC Activity (Fluorescent counts),"HDAC4; HDAC4, WW01 0.5 Log nM",35257 Fluorescent counts and 33365 Fluorescent counts
same,HDAC Activity (Fluorescent counts),"HDAC4; HDAC4, WW01 1 Log nM",34132 Fluorescent counts and 32561 Fluorescent counts
same,HDAC Activity (Fluorescent counts),"HDAC4; HDAC4, WW01 1.5 Log nM",32307 Fluorescent counts and 33171 Fluorescent counts
same,HDAC Activity (Fluorescent counts),"HDAC4; HDAC4, WW01 2 Log nM",34170 Fluorescent counts and 33741 Fluorescent counts
same,HDAC Activity (Fluorescent counts),"HDAC4; HDAC4, WW01 2.5 Log nM",30594 Fluorescent counts and 30410 Fluorescent counts
same,HDAC Activity (Fluorescent counts),"HDAC4; HDAC4, WW01 3 Log nM",29955 Fluorescent counts and 29639 Fluorescent counts
same,HDAC Activity (Fluorescent counts),"HDAC4; HDAC4, WW01 3.5 Log nM",26541 Fluorescent counts and 27641 Fluorescent counts
same,HDAC Activity (Fluorescent counts),"HDAC4; HDAC4, WW01 4 Log nM",24902 Fluorescent counts and 23203 Fluorescent counts
same,HDAC Activity (Fluorescent counts),"HDAC4; HDAC4, WW01 -0.5 Log nM",34466 Fluorescent counts and 34397 Fluorescent counts
same,IC50,HDAC4; [3],> 10 µM
same,HDAC Activity (Fluorescent counts),"HDAC7; HDAC7, WW01 0 Log nM",32252 Fluorescent counts and 31868 Fluorescent counts
same,HDAC Activity (Fluorescent counts),"HDAC7; HDAC7, WW01 0.5 Log nM",34296 Fluorescent counts and 32176 Fluorescent counts
same,HDAC Activity (Fluorescent counts),"HDAC7; HDAC7, WW01 1 Log nM",33398 Fluorescent counts and 31906 Fluorescent counts
same,HDAC Activity (Fluorescent counts),"HDAC7; HDAC7, WW01 1.5 Log nM",32702 Fluorescent counts and 31126 Fluorescent counts
same,HDAC Activity (Fluorescent counts),"HDAC7; HDAC7, WW01 2 Log nM",31277 Fluorescent counts and 30567 Fluorescent counts
same,HDAC Activity (Fluorescent counts),"HDAC7; HDAC7, WW01 2.5 Log nM",29706 Fluorescent counts and 30369 Fluorescent counts
same,HDAC Activity (Fluorescent counts),"HDAC7; HDAC7, WW01 3 Log nM",26605 Fluorescent counts and 26320 Fluorescent counts
same,HDAC Activity (Fluorescent counts),"HDAC7; HDAC7, WW01 3.5 Log nM",26104 Fluorescent counts and 24955 Fluorescent counts
same,HDAC Activity (Fluorescent counts),"HDAC7; HDAC7, WW01 4 Log nM",25321 Fluorescent counts and 25226 Fluorescent counts
same,HDAC Activity (Fluorescent counts),"HDAC7; HDAC7, WW01 -0.5 Log nM",33125 Fluorescent counts and 32259 Fluorescent counts
same,IC50,HDAC7; [3],> 10 µM
same,IC50,[1],0.14 µM
same,GLI1 binding to immobilized oligos with consensus GLI binding sequence,[2],loss of GLI1 binding
